A short description of data set [1]: Apparent permeability in MDCK-II cells. It counts as ADME, cell-based, Canis lupus familiaris. The conditions noted are these: dog.
The nature of data set [2]: Clearance in human liver microsomes assessed per mg protein. The format is ADME, Microsome. To be noted: read-out: CLH. For orientation: Microsomes from liver hold many membrane-bound enzymes, among them those of drug oxidation.
Data set [3] can be described thus: Fraction unbound in human plasma. The format is ADME, cell-free.
Data set [4] is described as follows: Apparent clearance in human hepatocytes assessed per million cells. It counts as ADME, cell-based, Hepatocyte. The conditions noted are these: read-out: CLH.
The nature of another data set: physchem. The conditions noted are these: octanol/water phosphate buffer, pH 7.4.
For data set [5], the target named is T1, Tyrosine-protein kinase JAK2 (Homo sapiens, UniProt O60674). As to the kind of experiment: Inhibition of recombinant human GST-tagged JAK2 catalytic domain (809 to 1153+9 residues) expressed in baculovirus expression system using FITC-KGGEEEEYFELVKK as substrate in presence of ATP at Km by microfluidic assay.
T1 sequence (O60674 whole entry, the tested form may be a part): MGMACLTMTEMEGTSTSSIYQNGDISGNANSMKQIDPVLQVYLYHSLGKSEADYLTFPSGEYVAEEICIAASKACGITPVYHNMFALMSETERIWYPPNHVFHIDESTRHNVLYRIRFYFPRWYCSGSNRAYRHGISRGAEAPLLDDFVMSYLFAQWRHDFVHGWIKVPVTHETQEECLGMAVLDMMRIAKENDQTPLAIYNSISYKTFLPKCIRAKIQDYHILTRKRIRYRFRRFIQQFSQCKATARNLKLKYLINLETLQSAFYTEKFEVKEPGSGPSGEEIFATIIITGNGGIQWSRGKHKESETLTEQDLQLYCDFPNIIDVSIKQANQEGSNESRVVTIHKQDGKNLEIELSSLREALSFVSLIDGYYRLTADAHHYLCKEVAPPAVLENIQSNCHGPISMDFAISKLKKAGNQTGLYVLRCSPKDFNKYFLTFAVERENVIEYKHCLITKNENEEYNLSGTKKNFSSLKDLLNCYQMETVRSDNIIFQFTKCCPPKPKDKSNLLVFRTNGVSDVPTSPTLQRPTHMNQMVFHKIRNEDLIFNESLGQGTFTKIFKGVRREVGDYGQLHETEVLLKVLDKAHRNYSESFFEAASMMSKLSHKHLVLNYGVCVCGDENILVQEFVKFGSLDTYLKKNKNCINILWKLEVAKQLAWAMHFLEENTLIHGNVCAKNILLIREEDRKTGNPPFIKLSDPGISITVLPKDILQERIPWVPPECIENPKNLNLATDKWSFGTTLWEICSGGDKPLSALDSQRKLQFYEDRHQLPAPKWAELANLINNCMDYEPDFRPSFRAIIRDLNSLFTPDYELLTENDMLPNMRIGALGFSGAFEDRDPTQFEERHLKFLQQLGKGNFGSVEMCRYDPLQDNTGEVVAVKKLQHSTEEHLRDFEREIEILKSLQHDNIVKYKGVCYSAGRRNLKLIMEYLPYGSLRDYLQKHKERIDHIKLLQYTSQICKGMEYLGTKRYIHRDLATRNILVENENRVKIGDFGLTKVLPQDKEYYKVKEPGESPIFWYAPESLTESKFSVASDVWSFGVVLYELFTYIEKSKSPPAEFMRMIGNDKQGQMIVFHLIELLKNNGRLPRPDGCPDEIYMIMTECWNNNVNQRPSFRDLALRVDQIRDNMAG
In data set [6] the target is T2, Tyrosine-protein kinase JAK3 (Homo sapiens, UniProt P52333).
T2 sequence (P52333 whole entry): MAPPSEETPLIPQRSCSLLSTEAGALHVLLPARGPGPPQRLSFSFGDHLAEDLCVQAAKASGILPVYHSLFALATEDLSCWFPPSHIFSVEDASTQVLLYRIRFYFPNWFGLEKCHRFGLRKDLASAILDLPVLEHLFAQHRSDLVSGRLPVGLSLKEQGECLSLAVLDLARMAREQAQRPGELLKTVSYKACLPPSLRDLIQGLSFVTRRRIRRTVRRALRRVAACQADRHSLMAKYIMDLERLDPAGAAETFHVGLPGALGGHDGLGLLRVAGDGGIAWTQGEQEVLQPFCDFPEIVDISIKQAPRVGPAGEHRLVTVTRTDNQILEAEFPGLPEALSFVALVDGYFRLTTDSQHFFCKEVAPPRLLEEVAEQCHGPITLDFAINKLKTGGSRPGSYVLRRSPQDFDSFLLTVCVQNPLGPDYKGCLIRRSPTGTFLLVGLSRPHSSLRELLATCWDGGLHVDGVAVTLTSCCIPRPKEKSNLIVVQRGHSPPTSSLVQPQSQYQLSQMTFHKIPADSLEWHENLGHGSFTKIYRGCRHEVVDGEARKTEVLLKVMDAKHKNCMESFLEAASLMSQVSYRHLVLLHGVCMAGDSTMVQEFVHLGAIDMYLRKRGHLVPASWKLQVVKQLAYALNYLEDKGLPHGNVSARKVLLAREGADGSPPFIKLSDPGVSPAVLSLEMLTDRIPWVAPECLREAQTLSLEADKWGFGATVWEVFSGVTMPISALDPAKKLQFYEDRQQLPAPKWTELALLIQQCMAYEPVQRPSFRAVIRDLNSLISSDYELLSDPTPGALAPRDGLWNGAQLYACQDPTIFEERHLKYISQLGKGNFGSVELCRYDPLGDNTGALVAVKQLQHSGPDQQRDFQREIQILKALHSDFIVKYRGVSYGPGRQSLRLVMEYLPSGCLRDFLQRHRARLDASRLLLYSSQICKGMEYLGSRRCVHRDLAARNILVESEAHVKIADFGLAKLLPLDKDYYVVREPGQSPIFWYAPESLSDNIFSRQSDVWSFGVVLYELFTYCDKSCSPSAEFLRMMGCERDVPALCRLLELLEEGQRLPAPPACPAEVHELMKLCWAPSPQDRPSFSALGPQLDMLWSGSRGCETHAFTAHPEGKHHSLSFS
As to the kind of experiment: Inhibition of recombinant human GST-tagged JAK3 catalytic domain (781 to 1124 residues) expressed in baculovirus expression system using FITC-KGGEEEEYFELVKK as substrate in presence of ATP at Km by microfluidic assay.

Data set [7] deals with Tyrosine-protein kinase JAK1 (Homo sapiens, UniProt P23458).
Tyrosine-protein kinase JAK1, sequence (P23458 whole entry): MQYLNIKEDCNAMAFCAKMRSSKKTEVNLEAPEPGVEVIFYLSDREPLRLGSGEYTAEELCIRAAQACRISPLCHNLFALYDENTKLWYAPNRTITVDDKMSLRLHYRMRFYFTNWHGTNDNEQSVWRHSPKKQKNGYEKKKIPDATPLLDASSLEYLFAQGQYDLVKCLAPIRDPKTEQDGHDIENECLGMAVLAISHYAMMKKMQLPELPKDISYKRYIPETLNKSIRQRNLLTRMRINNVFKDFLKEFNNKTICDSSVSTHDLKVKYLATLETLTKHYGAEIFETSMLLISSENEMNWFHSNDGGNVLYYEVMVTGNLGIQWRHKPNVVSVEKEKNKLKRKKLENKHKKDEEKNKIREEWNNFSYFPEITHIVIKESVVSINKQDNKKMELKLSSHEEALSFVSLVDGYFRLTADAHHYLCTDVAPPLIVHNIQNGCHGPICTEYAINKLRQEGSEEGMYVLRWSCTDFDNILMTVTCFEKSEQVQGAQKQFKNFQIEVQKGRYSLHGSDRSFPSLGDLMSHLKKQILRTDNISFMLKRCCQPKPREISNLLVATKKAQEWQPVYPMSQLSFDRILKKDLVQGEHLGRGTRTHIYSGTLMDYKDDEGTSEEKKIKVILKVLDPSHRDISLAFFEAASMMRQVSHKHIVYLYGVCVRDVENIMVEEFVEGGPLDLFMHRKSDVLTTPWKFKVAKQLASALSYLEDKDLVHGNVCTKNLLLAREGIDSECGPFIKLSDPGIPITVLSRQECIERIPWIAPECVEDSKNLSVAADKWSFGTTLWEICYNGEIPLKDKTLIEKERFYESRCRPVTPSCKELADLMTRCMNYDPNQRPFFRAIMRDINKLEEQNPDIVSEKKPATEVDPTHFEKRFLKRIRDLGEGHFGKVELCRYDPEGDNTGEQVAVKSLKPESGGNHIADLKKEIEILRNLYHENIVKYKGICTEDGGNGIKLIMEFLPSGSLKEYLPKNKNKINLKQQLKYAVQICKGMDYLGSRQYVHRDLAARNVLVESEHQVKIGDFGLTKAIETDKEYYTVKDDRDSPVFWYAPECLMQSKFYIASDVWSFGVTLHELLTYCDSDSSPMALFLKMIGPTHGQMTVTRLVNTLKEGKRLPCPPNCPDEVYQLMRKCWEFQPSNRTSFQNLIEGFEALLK
Data set [8] addresses Non-receptor tyrosine-protein kinase TYK2 (Homo sapiens, UniProt P29597). Put plainly: biochemical.
In data set [9] the target is T1, Tyrosine-protein kinase JAK2. Put plainly: Inhibition of JAK2 homodimer signaling pathway in human whole blood spiked with CD34 +ve cells assessed as reduction in EPO induced STAT5 phosphorylation preincubated for 45 mins followed by EPO addition and measured measured after 15 mins by immunostaining based FACS assay. It counts as tissue-based.
The species named for the next data set is Homo sapiens. Put plainly: Selectivity ratio of IC50 for recombinant human GST-tagged JAK2 catalytic domain (809 to 1153+9 residues) expressed in baculovirus expression system to IC50 for inhibition of recombinant human His-tagged TYK2 expressed in baculovirus infected Sf21 cells.
The subject of a further data set is TYK2/JAK2 (Homo sapiens). The conditions noted are these: Blood, time 60.0 min.

Experimental findings from ChEMBL document CHEMBL4673239, “Discovery of Tyrosine Kinase 2 (TYK2) Inhibitor (PF-06826647) for the Treatment of Autoimmune Diseases” (J Med Chem, 2020) are described below.

Molecules are shown by their SMILES.

Non-receptor tyrosine-protein kinase TYK2, sequence (P29597 whole entry): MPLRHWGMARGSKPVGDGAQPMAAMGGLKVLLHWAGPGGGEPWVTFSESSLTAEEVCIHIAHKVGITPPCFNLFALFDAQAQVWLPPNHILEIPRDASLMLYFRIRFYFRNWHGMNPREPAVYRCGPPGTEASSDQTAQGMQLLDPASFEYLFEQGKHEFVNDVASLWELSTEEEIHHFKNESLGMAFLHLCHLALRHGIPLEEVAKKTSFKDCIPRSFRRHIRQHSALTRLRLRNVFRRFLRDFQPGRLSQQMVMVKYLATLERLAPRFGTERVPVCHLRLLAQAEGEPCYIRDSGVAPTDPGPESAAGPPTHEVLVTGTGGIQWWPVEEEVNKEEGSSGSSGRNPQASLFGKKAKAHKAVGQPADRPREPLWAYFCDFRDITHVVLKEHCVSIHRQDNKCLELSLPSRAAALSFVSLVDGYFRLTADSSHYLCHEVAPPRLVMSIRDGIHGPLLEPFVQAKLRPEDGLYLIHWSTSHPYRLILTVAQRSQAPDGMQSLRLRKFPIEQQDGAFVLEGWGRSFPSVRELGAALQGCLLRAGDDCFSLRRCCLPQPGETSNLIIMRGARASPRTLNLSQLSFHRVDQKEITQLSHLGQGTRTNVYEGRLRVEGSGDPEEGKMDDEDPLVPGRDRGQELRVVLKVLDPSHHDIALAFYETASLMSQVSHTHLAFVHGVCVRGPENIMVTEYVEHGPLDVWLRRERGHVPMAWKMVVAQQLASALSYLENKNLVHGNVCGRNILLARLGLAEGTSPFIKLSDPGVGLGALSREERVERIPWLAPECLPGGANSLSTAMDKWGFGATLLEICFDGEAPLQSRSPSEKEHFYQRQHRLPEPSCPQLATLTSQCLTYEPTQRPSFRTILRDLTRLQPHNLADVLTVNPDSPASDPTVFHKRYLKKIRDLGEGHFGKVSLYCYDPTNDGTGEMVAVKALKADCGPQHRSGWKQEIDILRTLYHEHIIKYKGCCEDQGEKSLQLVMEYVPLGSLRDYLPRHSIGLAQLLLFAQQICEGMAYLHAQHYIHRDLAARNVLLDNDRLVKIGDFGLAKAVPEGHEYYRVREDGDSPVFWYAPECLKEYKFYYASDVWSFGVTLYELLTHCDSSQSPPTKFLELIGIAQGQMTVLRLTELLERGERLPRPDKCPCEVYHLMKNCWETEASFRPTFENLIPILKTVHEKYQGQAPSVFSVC
Description for physchem: Octanol/water phosphate buffer partition coefficient, log D of compound at pH 7.4 by shake-flask method

As usually defined, the Papp is a coefficient for how fast a substance crosses the barrier. In general, fraction unbound refers to the share of the substance not bound to proteins or other matrix. Lower therefore signals extensive binding. A word on the logD: it is lipophilicity at a set pH, counting ionised and neutral species. Turning to `Cn1cc(-c2cn3nccc3c(-c3cnn([C@]4(CC#N)C[C@H](C#N)C4)c3)n2)cn1`, the Papp in data set [1] was found to be 15 ×10⁻⁶ cm/s. Moreover, the microsomal CLint in data set [2] worked out at 17 µL/min/mg. This compound also yielded a fraction unbound in data set [3] of 0.34. For the same compound, the hepatocyte CLint in data set [4] amounted to 12 µL/min/1e6 cells. Further, the logD in “physchem” was 1.8.
As to `Cn1cc(-c2cn3nccc3c(-c3cnn([C@]4(CC#N)C[C@H](CC#N)C4)c3)n2)cn1`, the Papp in data set [1] turned out to be 21 ×10⁻⁶ cm/s. In addition, the microsomal CLint in data set [2] amounted to 10 µL/min/mg. In “physchem”, this compound had a logD of 1.8.
Usually IC50 stands for the concentration that inhibits the measured activity by half. As to `CC(=O)N1CC(CC#N)(n2cc(-c3nc(-c4cnn(C)c4)cn4nccc34)cn2)C1`, the Papp in [1] was 4 ×10⁻⁶ cm/s. Moreover, the IC50 is 1750 nM in [5], over 10000 nM in data set [6], 6110 nM in [7] and 678 nM in data set [8]. Also, the microsomal CLint in [2] was under 8 µL/min/mg. Moreover, the logD in the data set “physchem” amounted to 1.2.
Consider `Cn1ccc(-c2cn3nccc3c(-c3cnn([C@]4(CC#N)C[C@H](C#N)C4)c3)n2)n1`, for which the Papp in data set [1] was 14 ×10⁻⁶ cm/s. For the same compound, the IC50 in [5] is 45 nM; in data set [6], over 9590 nM; in data set [7] it was 261 nM; in data set [8], 10 nM. Besides, the microsomal CLint in data set [2] turned out to be 23 µL/min/mg. The compound also had a logD in the data set “physchem” of 1.6.
Regarding `N#CC[C@]1(n2cc(-c3nc(-c4cc[nH]n4)cn4nccc34)cn2)C[C@@H](C#N)C1`, in data set [1], the Papp is 7 ×10⁻⁶ cm/s. Further, the IC50 was 31 nM in data set [5], 4450 nM in data set [6], 43 nM in data set [7] and 9 nM in data set [8]. In [2], the microsomal CLint came out at 20 µL/min/mg. In addition, the logD in the data set “physchem” stood at 1.7.
As to `CO[C@H]1C[C@](CC#N)(n2cc(-c3nc(-c4cnn(C)c4)cn4nccc34)cn2)C1`, the Papp in data set [1] is 22 ×10⁻⁶ cm/s. In addition, the microsomal CLint in data set [2] is under 8 µL/min/mg. Besides, in [3], the free fraction (fraction unbound) amounted to 0.3. In data set [9], the IC50 is 1100 nM. For the same compound, the hepatocyte CLint in data set [4] worked out at 6 µL/min/1e6 cells. The logD in the data set “physchem” turned out to be 2.3.
With `Cn1cc(-c2cn3nccc3c(-c3cnn(C4(CC#N)CN(CC5CC5)C4)c3)n2)cn1`, in data set [1], the Papp is 27 ×10⁻⁶ cm/s. Moreover, the IC50 is 187 nM in data set [5], over 10000 nM in data set [6], 933 nM in data set [7] and 40 nM in data set [8]. Moreover, the microsomal CLint in data set [2] was determined as 30 µL/min/mg.
Regarding `Cn1cc(-c2cn3nccc3c(-c3cnn(C4(CC#N)CN(CCO)C4)c3)n2)cn1`, the Papp in data set [1] stood at 7 ×10⁻⁶ cm/s. For the same compound, the IC50 in data set [5] is 1040 nM; in data set [6], over 10000 nM; in [7], 5580 nM; in [8], 189 nM. Besides, the microsomal CLint in data set [2] is under 8 µL/min/mg. This compound had a pH-dependent lipophilicity (logD) in “physchem” of 1.2.
Turning to `Cn1ccc(-c2cn3nccc3c(-c3cnn([C@]4(CC#N)C[C@@H](C#N)C4)c3)n2)n1`, in data set [1], the Papp was 20 ×10⁻⁶ cm/s. Moreover, the IC50 was 467 nM in [5], over 10000 nM in data set [6], 2530 nM in [7] and 67 nM in [8]. In addition, the microsomal CLint in [2] is under 8 µL/min/mg. Also, the Ratio IC50 in the data set listed under Homo sapiens was determined as 7. The compound further displayed a fraction unbound in data set [3] of 0.2. In addition, the hepatocyte CLint in data set [4] was under 2 µL/min/1e6 cells. In the data set on TYK2/JAK2 (Homo sapiens), the fIC50 came out at 254 nM. Further, the logD in “physchem” stood at 1.6.
In the case of `Cn1cc(-c2cn3nccc3c(-c3cnn([C@]4(CC#N)C[C@@H](CC#N)C4)c3)n2)cn1`, the Papp in data set [1] came out at 20 ×10⁻⁶ cm/s. In addition, in data set [2], the microsomal CLint is 11 µL/min/mg. The logD in “physchem” was determined as 1.9.
In the data set “physchem”, `Cn1cc(-c2cc(-c3cnn(C4(CC#N)CN(CC(F)(F)F)C4)c3)n3cnnc3c2)cn1` came in with a logD of 1.2. In data set [8], the IC50 is over 10000 nM.
Regarding `Cn1cc(-c2cc(-c3cnn(C4(CC#N)CN(CC(F)(F)F)C4)c3)n3ncnc3c2)cn1`, the logD in “physchem” is 2.3. Besides, in data set [8], the IC50 stood at 476 nM.
Turning to `Cn1cc(-c2cn3nccc3c(-c3cnn(C4(CC#N)CN(CC#N)C4)c3)n2)cn1`, the Papp in data set [1] was 11 ×10⁻⁶ cm/s. In [2], the microsomal CLint is under 8 µL/min/mg. The same compound came in with a logD in the data set “physchem” of 1.5.
Take `Cn1cc(-c2cn3nccc3c(-c3cnn(C4(CC#N)CN(CC(F)(F)F)C4)c3)n2)cn1`: the Papp in data set [1] was 18 ×10⁻⁶ cm/s. The IC50 in data set [5] is 65 nM; in [6] it was over 9850 nM; in data set [7], 358 nM; in data set [8], 10 nM. Besides, the microsomal CLint in data set [2] stood at 18 µL/min/mg. In addition, the logD in the data set “physchem” came out at 2.5.
In the case of `CO[C@H]1C[C@@](CC#N)(n2cc(-c3nc(-c4cnn(C)c4)cn4nccc34)cn2)C1`, the apparent permeability coefficient (Papp) in data set [1] stood at 20 ×10⁻⁶ cm/s. Besides, the IC50 in data set [6] is over 10000 nM. The microsomal CLint in data set [2] came out at 27 µL/min/mg. In the data set “physchem”, this compound yielded a logD of 2.2.
In the case of `CCN1CC(CC#N)(n2cc(-c3nc(-c4cnn(C)c4)cn4nccc34)cn2)C1`, in data set [1], the Papp was found to be 33 ×10⁻⁶ cm/s. The IC50 in data set [5] was 346 nM; in [6], over 10000 nM; in data set [7], 2670 nM; in data set [8] it was 46 nM. In data set [2], the microsomal CLint stood at 21 µL/min/mg. In “physchem”, this compound displayed a logD of 2.1.
For the compound `N#CC[C@]1(n2cc(-c3nc(-c4cn[nH]c4)cn4nccc34)cn2)C[C@@H](C#N)C1`, the Papp in data set [1] stood at 6 ×10⁻⁶ cm/s. For the same compound, the IC50 was found to be 22 nM in data set [5], 2240 nM in data set [6], 22 nM in data set [7] and 8 nM in data set [8]. Also, the microsomal CLint in data set [2] was 44 µL/min/mg. Besides, in the data set “physchem”, the logD turned out to be 1.6.
Consider `N#CC[C@]1(n2cc(-c3nc(-c4cn[nH]c4)cn4nccc34)cn2)C[C@H](C#N)C1`, for which the Papp in data set [1] was determined as 7 ×10⁻⁶ cm/s. Further, the IC50 in data set [5] is 280 nM; in data set [6], over 10000 nM; in data set [7], 398 nM; in data set [8], 44 nM. Besides, the microsomal CLint in data set [2] is 19 µL/min/mg. Also, in “physchem”, the logD stood at 1.7.
In “physchem”, `Cn1cc(-c2cc(-c3cnn(C4(CC#N)CN(CC(F)(F)F)C4)c3)n3ccnc3c2)cn1` had a logD of 2.1. The same compound yielded an IC50 in [8] of 290 nM.
On to `N#CC[C@]1(n2cc(-c3nc(-c4cc[nH]n4)cn4nccc34)cn2)C[C@H](C#N)C1`, for which the Papp in data set [1] was found to be 17 ×10⁻⁶ cm/s. In addition, the IC50 in [5] is 172 nM; in data set [6], over 10000 nM; in data set [7], 284 nM; in data set [8], 26 nM. Moreover, the microsomal CLint in data set [2] is under 8 µL/min/mg. The Ratio IC50 in the data set listed under Homo sapiens was found to be 7. The compound also showed a fraction unbound in data set [3] of 0.32. Besides, in [4], the hepatocyte CLint came out at 7 µL/min/1e6 cells. For the same compound, in the data set on TYK2/JAK2 (Homo sapiens), the fIC50 was 334 nM. The same compound displayed a logD in “physchem” of 1.7.
